Assay results as given in paper PMC9721052, “AHL-Priming Protein 1 mediates N-3-oxo-tetradecanoyl-homoserine lactone priming in Arabidopsis” (BMC Biology, 2022).

Biological target: T1, ALI1 (AHL-Priming Protein 1; AtGlcAK2, formerly AtGALK2) (Arabidopsis thaliana, UniProt Q9LY82)
T1 construct: gene GLCAK2; full ORF amplified from Col-0 cDNA, pDEST17, N-terminal 6xHis kept, expressed in E. coli BL21, Ni-NTA purified; GST-ALI1 also made for the biosensor assay
T1 sequence (Q9LY82 1-366): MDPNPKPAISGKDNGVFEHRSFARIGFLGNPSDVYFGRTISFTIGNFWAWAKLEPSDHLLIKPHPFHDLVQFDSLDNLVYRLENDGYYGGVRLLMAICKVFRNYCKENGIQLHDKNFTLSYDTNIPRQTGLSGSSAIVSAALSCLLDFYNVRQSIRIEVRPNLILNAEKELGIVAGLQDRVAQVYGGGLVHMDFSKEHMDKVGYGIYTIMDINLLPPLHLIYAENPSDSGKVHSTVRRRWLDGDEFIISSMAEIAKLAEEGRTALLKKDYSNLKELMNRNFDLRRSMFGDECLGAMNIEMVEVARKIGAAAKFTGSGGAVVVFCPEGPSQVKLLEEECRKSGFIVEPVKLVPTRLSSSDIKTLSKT
Test: sequestration of free ligand read by biosensor E. coli LuxCDABE luminescence
Type: binding
Settings: 6 nmol protein, 0-18 nmol ligand, overnight; indirect assay, MST and nanoDSF by the same authors did not confirm

CCCCCCCCCCCC(=O)CC(=O)N[C@H]1CCOC1=O [oxo-C14-HSL]
sequestration of free ligand read by biosensor E. coli LuxCDABE luminescence: equivalently able to sequestrate oxo-C14-HSL molecule from the solution
